Experimental data taken from the supplement of paper PMC8612539.
≈ marks a conversion by molar mass, not a printed value.

Tested on: Histophilus somni
Assay: minimum inhibitory concentration (MIC)
Procedure: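 Broth microdilution MIC (Sensititre BOPO7F bovine plate, CLSI methods) of 19 antimicrobials against field isolates of P. multocida, M. haemolytica, H. somni (deep nasopharyngeal swabs) and E. coli, Enterococcus spp. (rectal swabs) from weaned dairy heifers. Incubation 16-24 h at 35 C. MIC is the lowest concentration preventing visible growth. Values with <= or > lie at the tested range limits. Trimethoprim-sulfamethoxazole is given as the trimethoprim component of a 1:19 mixture.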

NC[C@@H]1O[C@H](O[C@H]2[C@@H](O)[C@H](O[C@@H]3[C@@H](O)[C@H](N)C[C@H](N)[C@H]3O[C@H]3O[C@H](CN)[C@@H](O)[C@H](O)[C@H]3N)O[C@@H]2CO)[C@H](N)[C@@H](O)[C@@H]1O [Neomycin]
Settings	minimum inhibitory concentration [µg/mL]
isolate (source animal id): 3	32 (≈ 52.1 µM)
isolate (source animal id): 4	32 (≈ 52.1 µM)
isolate (source animal id): 7	16 (≈ 26 µM)
isolate (source animal id): 14	16 (≈ 26 µM)
isolate (source animal id): 15	32 (≈ 52.1 µM)
isolate (source animal id): 17	16 (≈ 26 µM)
isolate (source animal id): 18	32 (≈ 52.1 µM)
isolate (source animal id): 20	≤ 4
isolate (source animal id): 23	32 (≈ 52.1 µM)
isolate (source animal id): 45	32 (≈ 52.1 µM)
isolate (source animal id): 53	32 (≈ 52.1 µM)
isolate (source animal id): 83	32 (≈ 52.1 µM)
isolate (source animal id): 88	32 (≈ 52.1 µM)
isolate (source animal id): 92	> 32
isolate (source animal id): 93	8 (≈ 13 µM)
isolate (source animal id): 99	> 32
isolate (source animal id): 100	> 32
isolate (source animal id): 105	32 (≈ 52.1 µM)
isolate (source animal id): 107	> 32
isolate (source animal id): 108	> 32
isolate (source animal id): 109	> 32
isolate (source animal id): 110	> 32
isolate (source animal id): 117	16 (≈ 26 µM)
isolate (source animal id): 121	16 (≈ 26 µM)
isolate (source animal id): 123	32 (≈ 52.1 µM)
isolate (source animal id): 124	32 (≈ 52.1 µM)
isolate (source animal id): 127	32 (≈ 52.1 µM)
isolate (source animal id): 128	16 (≈ 26 µM)
isolate (source animal id): 130	16 (≈ 26 µM)
isolate (source animal id): 132	16 (≈ 26 µM)
isolate (source animal id): 135	16 (≈ 26 µM)
isolate (source animal id): 140	16 (≈ 26 µM)
isolate (source animal id): 141	16 (≈ 26 µM)
isolate (source animal id): 142	> 32
isolate (source animal id): 144	> 32
isolate (source animal id): 146	> 32
isolate (source animal id): 147	> 32
isolate (source animal id): 151	32 (≈ 52.1 µM)
isolate (source animal id): 153	> 32
isolate (source animal id): 154	> 32
isolate (source animal id): 156	32 (≈ 52.1 µM)
isolate (source animal id): 157	> 32
isolate (source animal id): 176	32 (≈ 52.1 µM)
isolate (source animal id): 183	32 (≈ 52.1 µM)
isolate (source animal id): 186	> 32
isolate (source animal id): 196	> 32
isolate (source animal id): 198	> 32
isolate (source animal id): 200	> 32
isolate (source animal id): 206	> 32
isolate (source animal id): 208	> 32
isolate (source animal id): 210	> 32
isolate (source animal id): 212	32 (≈ 52.1 µM)
isolate (source animal id): 215	> 32
isolate (source animal id): 216	> 32
isolate (source animal id): 218	> 32
isolate (source animal id): 219	> 32
isolate (source animal id): 224	> 32
isolate (source animal id): 228	32 (≈ 52.1 µM)
isolate (source animal id): 230	32 (≈ 52.1 µM)
isolate (source animal id): 233	> 32
isolate (source animal id): 238	16 (≈ 26 µM)
isolate (source animal id): 239	32 (≈ 52.1 µM)
isolate (source animal id): 241	32 (≈ 52.1 µM)
isolate (source animal id): 242	32 (≈ 52.1 µM)
isolate (source animal id): 243	32 (≈ 52.1 µM)
isolate (source animal id): 245	> 32
isolate (source animal id): 246	32 (≈ 52.1 µM)
isolate (source animal id): 247	32 (≈ 52.1 µM)
isolate (source animal id): 248	≤ 4
isolate (source animal id): 250	32 (≈ 52.1 µM)
isolate (source animal id): 251	32 (≈ 52.1 µM)
isolate (source animal id): 252	32 (≈ 52.1 µM)
isolate (source animal id): 254	32 (≈ 52.1 µM)
isolate (source animal id): 258	> 32
isolate (source animal id): 259	> 32
isolate (source animal id): 262	32 (≈ 52.1 µM)
isolate (source animal id): 264	8 (≈ 13 µM)
isolate (source animal id): 265	> 32
isolate (source animal id): 266	> 32
isolate (source animal id): 267	> 32
isolate (source animal id): 269	> 32
isolate (source animal id): 271	> 32
isolate (source animal id): 272	> 32
isolate (source animal id): 274	32 (≈ 52.1 µM)
isolate (source animal id): 276	≤ 4
isolate (source animal id): 278	> 32
isolate (source animal id): 280	> 32
isolate (source animal id): 281	> 32
isolate (source animal id): 283	> 32
isolate (source animal id): 288	> 32
isolate (source animal id): 291	32 (≈ 52.1 µM)
isolate (source animal id): 292	> 32
isolate (source animal id): 296	> 32
isolate (source animal id): 306	> 32
isolate (source animal id): 336	> 32
isolate (source animal id): 337	> 32
isolate (source animal id): 341	> 32

CS(=O)(=O)c1ccc([C@@H](O)[C@@H](CF)NC(=O)C(Cl)Cl)cc1 [Florfenicol]
Settings	minimum inhibitory concentration [µg/mL]
isolate (source animal id): 3	≤ 0.25
isolate (source animal id): 4	1 (≈ 2.79 µM)
isolate (source animal id): 7	1 (≈ 2.79 µM)
isolate (source animal id): 14	1 (≈ 2.79 µM)
isolate (source animal id): 15	≤ 0.25
isolate (source animal id): 17	1 (≈ 2.79 µM)
isolate (source animal id): 18	≤ 0.25
isolate (source animal id): 20	1 (≈ 2.79 µM)
isolate (source animal id): 23	≤ 0.25
isolate (source animal id): 45	1 (≈ 2.79 µM)
isolate (source animal id): 53	1 (≈ 2.79 µM)
isolate (source animal id): 83	0.5 (≈ 1.4 µM)
isolate (source animal id): 88	0.5 (≈ 1.4 µM)
isolate (source animal id): 92	0.5 (≈ 1.4 µM)
isolate (source animal id): 93	≤ 0.25
isolate (source animal id): 99	0.5 (≈ 1.4 µM)
isolate (source animal id): 100	0.5 (≈ 1.4 µM)
isolate (source animal id): 105	0.5 (≈ 1.4 µM)
isolate (source animal id): 107	0.5 (≈ 1.4 µM)
isolate (source animal id): 108	1 (≈ 2.79 µM)
isolate (source animal id): 109	0.5 (≈ 1.4 µM)
isolate (source animal id): 110	0.5 (≈ 1.4 µM)
isolate (source animal id): 117	0.5 (≈ 1.4 µM)
isolate (source animal id): 121	0.5 (≈ 1.4 µM)
isolate (source animal id): 123	≤ 0.25
isolate (source animal id): 124	≤ 0.25
isolate (source animal id): 127	≤ 0.25
isolate (source animal id): 128	0.5 (≈ 1.4 µM)
isolate (source animal id): 130	1 (≈ 2.79 µM)
isolate (source animal id): 132	0.5 (≈ 1.4 µM)
isolate (source animal id): 135	0.5 (≈ 1.4 µM)
isolate (source animal id): 140	0.5 (≈ 1.4 µM)
isolate (source animal id): 141	≤ 0.25
isolate (source animal id): 142	1 (≈ 2.79 µM)
isolate (source animal id): 144	≤ 0.25
isolate (source animal id): 146	0.5 (≈ 1.4 µM)
isolate (source animal id): 147	1 (≈ 2.79 µM)
isolate (source animal id): 151	0.5 (≈ 1.4 µM)
isolate (source animal id): 153	≤ 0.25
isolate (source animal id): 154	1 (≈ 2.79 µM)
isolate (source animal id): 156	1 (≈ 2.79 µM)
isolate (source animal id): 157	≤ 0.25
isolate (source animal id): 176	≤ 0.25
isolate (source animal id): 183	≤ 0.25
isolate (source animal id): 186	≤ 0.25
isolate (source animal id): 196	≤ 0.25
isolate (source animal id): 198	≤ 0.25
isolate (source animal id): 200	≤ 0.25
isolate (source animal id): 206	≤ 0.25
isolate (source animal id): 208	≤ 0.25
isolate (source animal id): 210	≤ 0.25
isolate (source animal id): 212	≤ 0.25
isolate (source animal id): 215	≤ 0.25
isolate (source animal id): 216	≤ 0.25
isolate (source animal id): 218	≤ 0.25
isolate (source animal id): 219	≤ 0.25
isolate (source animal id): 224	≤ 0.25
isolate (source animal id): 228	≤ 0.25
isolate (source animal id): 230	≤ 0.25
isolate (source animal id): 233	1 (≈ 2.79 µM)
isolate (source animal id): 238	≤ 0.25
isolate (source animal id): 239	1 (≈ 2.79 µM)
isolate (source animal id): 241	≤ 0.25
isolate (source animal id): 242	≤ 0.25
isolate (source animal id): 243	≤ 0.25
isolate (source animal id): 245	1 (≈ 2.79 µM)
isolate (source animal id): 246	≤ 0.25
isolate (source animal id): 247	≤ 0.25
isolate (source animal id): 248	≤ 0.25
isolate (source animal id): 250	≤ 0.25
isolate (source animal id): 251	≤ 0.25
isolate (source animal id): 252	≤ 0.25
isolate (source animal id): 254	≤ 0.25
isolate (source animal id): 258	≤ 0.25
isolate (source animal id): 259	≤ 0.25
isolate (source animal id): 262	1 (≈ 2.79 µM)
isolate (source animal id): 264	≤ 0.25
isolate (source animal id): 265	≤ 0.25
isolate (source animal id): 266	≤ 0.25
isolate (source animal id): 267	≤ 0.25
isolate (source animal id): 269	≤ 0.25
isolate (source animal id): 271	≤ 0.25
isolate (source animal id): 272	≤ 0.25
isolate (source animal id): 274	1 (≈ 2.79 µM)
isolate (source animal id): 276	≤ 0.25
isolate (source animal id): 278	≤ 0.25
isolate (source animal id): 280	≤ 0.25
isolate (source animal id): 281	≤ 0.25
isolate (source animal id): 283	≤ 0.25
isolate (source animal id): 288	≤ 0.25
isolate (source animal id): 291	0.5 (≈ 1.4 µM)
isolate (source animal id): 292	≤ 0.25
isolate (source animal id): 296	≤ 0.25
isolate (source animal id): 306	≤ 0.25
isolate (source animal id): 336	≤ 0.25
isolate (source animal id): 337	≤ 0.25
isolate (source animal id): 341	≤ 0.25
